pEC50, pIC50: −log10 of the molar value.
Legend:
cynomolgus monkeys = test: Intraocular pressure in cynomolgus monkeys; format: in vivo; conditions: monkey, topical single dose, Conc. 0.1%
Description: (§1) • Intraocular Pressure (IOP) Intraocular pressure studies in dogs involved pneumatonometry performed in conscious, Beagle dogs of both sexes (10–15 kg). The animals remained conscious throughout the study and were gently restrained by hand. Drugs were administered topically to one eye as a 25 μL volume drop, the other eye received 25 μL vehicle (0.1% polysorbate 80:10 mM TRIS) as a control. Proparacaine (0.1%) was used for corneal anesthesia during tonometry. Intraocular pressure was determined just before drug administration and at 2, 4 and 6 hr thereafter on each day of the 5 day study. Drug was administered immediately after the first IOP reading. • An analogous procedure was carried out with cynomolgus monkeys with measurements at 2, 4, 6, and 24 hours after a single dose. • Pupil Diameter • Dog pupil diameter was measured using an optistick (a mm ruler which included half-circle references of standard widths (mm) for reference. Gently restraining the dog by hand, pupil diameter was determined by matching a half-circle to the pupil in normal room light. In dogs with very dark pupils a specialized penlight was used, but only very briefly to avoid pupil constriction. Pupil diameter was measured at the same time as IOP and hyperemia. • Ocular Surface Hyperemia • Ocular surface hyperemia was visually assessed and scored according to a system typically used clinically.

HEP4 = biological target: T1, HEP4 (Homo sapiens, UniProt P35408); test: Radioligand binding, EP4 receptor; conditions: [3H]PGE2 5 nM, HEK-293 membranes
T1 construct: expressed in transfected cells; host or cells: HEK-293
T1 sequence (P35408 whole entry): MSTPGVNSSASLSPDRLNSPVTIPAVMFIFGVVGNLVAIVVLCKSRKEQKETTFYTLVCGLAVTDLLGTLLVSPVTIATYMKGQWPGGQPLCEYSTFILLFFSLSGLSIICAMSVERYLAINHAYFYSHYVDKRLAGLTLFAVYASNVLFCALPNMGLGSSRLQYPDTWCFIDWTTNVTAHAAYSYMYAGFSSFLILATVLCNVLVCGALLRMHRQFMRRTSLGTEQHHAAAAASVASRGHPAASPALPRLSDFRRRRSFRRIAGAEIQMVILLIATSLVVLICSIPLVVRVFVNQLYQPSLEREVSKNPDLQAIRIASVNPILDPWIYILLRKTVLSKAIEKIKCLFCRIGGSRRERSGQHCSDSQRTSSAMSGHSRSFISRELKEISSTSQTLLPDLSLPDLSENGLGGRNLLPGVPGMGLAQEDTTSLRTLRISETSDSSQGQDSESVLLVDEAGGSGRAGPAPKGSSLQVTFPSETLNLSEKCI
Description: (§2) HEK-293 cells stably expressing the human or feline FP receptor, or EP1, EP2, or EP4 receptors were washed with TME buffer, scraped from the bottom of the flasks, and homogenized for 30 sec using a Brinkman PT 10/35 polytron. TME buffer was added to achieve a final 40 ml volume in the centrifuge tubes (the composition of TME is 100 mM TRIS base, 20 mM MgCl2, […]; 10N HCl is added to achieve a pH of 7.4).
(§3) The cell homogenate was centrifuged at 19000 r.p.m. for 20 min at 4° C. using a Beckman Ti-60 rotor. The resultant pellet was resuspended in TME buffer to give a final 1 mg/ml protein concentration, as determined by Biorad assay. Radioligand binding competition assays vs. [^3H-]17-phenyl PGF2α (5 nM) were performed in a 100 μl volume for 60 min. Binding reactions were started by adding plasma membrane fraction. The reaction was terminated by the addition of 4 ml ice-cold TRIS-HCl buffer and rapid filtration through glass fiber GF/B filters using a Brandel cell harvester. The filters were washed 3 times with ice-cold buffer and oven dried for one hour. Non-specific binding was determined with 10 uM unlabeled 17-phenyl PGF2α.
(§4) [^3H-] PGE2 (5 nM; specific activity 180 Ci mmol) was used as the radioligand for EP receptors. Binding studies employing EP1, EP2, EP3, EP4 were performed in duplicate in at least three separate experiments. A 200 μl assay volume was used. Incubations were for 60 min at 25° C. and were terminated by the addition of 4 ml of ice-cold 50 mM TRIS-HCl, followed by rapid filtration through Whatman GF/B filters and three additional 4 ml washes in a cell harvester (Brandel). Non-specific binding determined with 10^−5M of unlabeled PGE2.

hEP4/Gqs5 = biological target: T2, hEP4/Gqs5 (Homo sapiens, UniProt P35408); test: FLIPR calcium signal, hEP4/Gqs5; format: cell-based; conditions: HEK-293 (EBNA) cells, read-out: FUNCTIONAL EC50 HEP4
T2 construct: expressed in transfected cells; host or cells: HEK-293 (EBNA)
T2 sequence (P35408 whole entry): as above
Description: (§5) HEK-293 (EBNA) cells, stably expressing one type or subtype of recombinant human prostaglandin receptors (prostaglandin receptors expressed: hDP/Gqs5; hEP1; hEP2/Gqs5; hEP3A/Gqi5; hEP4/Gqs5; hFP; hIP; hTP), were cultured in 100 mm culture dishes in high-glucose DMEM medium containing 10% fetal bovine serum, 2 mM 1-glutamine, 250 μg/ml geneticin (G418) and 200 μg/ml hygromycin B as selection markers, and 100 units/ml penicillin G, 100 μg/ml streptomycin and 0.25 μg/ml amphotericin B. • (b) Calcium Signal Studies on the FLIPR™
Cells were seeded at a density of 5×10^4 cells per well in Biocoat® Poly-D-lysine-coated black-wall, clear-bottom 96-well plates (Becton-Dickinson) and allowed to attach overnight in an incubator at 37° C. Cells were then washed two times with HBSS-HEPES buffer (Hanks Balanced Salt Solution without bicarbonate and phenol red, 20 mM HEPES, pH 7.4) using a Denley Cellwash plate washer (Labsystems). After 45 minutes of dye-loading in the dark, using the calcium-sensitive dye Fluo-4 AM at a final concentration of 2 μM, plates were washed four times with HBSS-HEPES buffer to remove excess dye leaving 100 μl in each well. Plates were re-equilibrated to 37° C. for a few minutes.
Cells were excited with an Argon laser at 488 nm, and emission was measured through a 510–570 nm bandwidth emission filter (FLIPR™, Molecular Devices, Sunnyvale, Calif.). Drug solution was added in a 50 μl volume to each well to give the desired final concentration. The peak increase in fluorescence intensity was recorded for each well. On each plate, four wells each served as negative (HBSS-HEPES buffer) and positive controls (standard agonists: BW245C (hDP); PGE2 (hEP1; hEP2/Gqs5; hEP3A/Gqi5; hEP4/Gqs5); PGF2α (hFP); carbacyclin (hIP); U46619 (hTP), depending on receptor). The peak fluorescence change in each drug-containing well was then expressed relative to the controls.
Compounds were tested in a high-throughput (HTS) or concentration-response (CoRe) format. In the HTS format, forty-four compounds per plate were examined in duplicates at a concentration of 10^−5 M. To generate concentration-response curves, four compounds per plate were tested in duplicates in a concentration range between 10^−5 and 10^−11 M. The duplicate values were averaged. In either, HTS or CoRe format each compound was tested on at least 3 separate plates using cells from different passages to give an n≧3.

Beagle dogs [1] = test: Ocular surface hyperemia in dogs; format: in vivo; conditions: dog, topical, Conc. 0.1%; score: trace 0.5, mild 1, moderate 2, severe 3
Description: as §1
• Ocular surface hyperemia was evaluated at the same time points as intraocular pressure measurement. It should be noted that untreated dog eyes frequently have a pink/red tone. Thus, values of trace or even mild are not necessarily out of the normal range.

HEP3D = biological target: T3, HEP3D (Homo sapiens, UniProt P43115); test: Radioligand binding, EP3 receptor; conditions: [3H]PGE2 5 nM
T3 sequence (P43115 1-374 isoform P43115-4): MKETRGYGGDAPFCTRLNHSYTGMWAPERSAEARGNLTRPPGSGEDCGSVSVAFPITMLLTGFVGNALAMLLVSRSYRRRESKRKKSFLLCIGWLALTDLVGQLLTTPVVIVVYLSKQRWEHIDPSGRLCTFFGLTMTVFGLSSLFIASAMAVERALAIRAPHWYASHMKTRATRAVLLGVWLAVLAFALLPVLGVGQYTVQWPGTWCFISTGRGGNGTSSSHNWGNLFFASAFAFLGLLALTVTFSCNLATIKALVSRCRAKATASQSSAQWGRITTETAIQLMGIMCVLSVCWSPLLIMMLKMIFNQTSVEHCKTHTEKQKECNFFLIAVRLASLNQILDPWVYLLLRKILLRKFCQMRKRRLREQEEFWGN
Description: as §2, §3, §4

Beagle dogs [2] = test: Intraocular pressure in dogs (pneumatonometry); format: in vivo; conditions: dog, topical 25 μL drop, Conc. 0.1%, 5 day study
Description: as §1

hIP = biological target: T4, hIP (Homo sapiens, UniProt P43119); test: FLIPR calcium signal, hIP; format: cell-based; conditions: HEK-293 (EBNA) cells, read-out: FUNCTIONAL EC50 HIP
T4 construct: expressed in transfected cells; host or cells: HEK-293 (EBNA)
T4 sequence (P43119 whole entry): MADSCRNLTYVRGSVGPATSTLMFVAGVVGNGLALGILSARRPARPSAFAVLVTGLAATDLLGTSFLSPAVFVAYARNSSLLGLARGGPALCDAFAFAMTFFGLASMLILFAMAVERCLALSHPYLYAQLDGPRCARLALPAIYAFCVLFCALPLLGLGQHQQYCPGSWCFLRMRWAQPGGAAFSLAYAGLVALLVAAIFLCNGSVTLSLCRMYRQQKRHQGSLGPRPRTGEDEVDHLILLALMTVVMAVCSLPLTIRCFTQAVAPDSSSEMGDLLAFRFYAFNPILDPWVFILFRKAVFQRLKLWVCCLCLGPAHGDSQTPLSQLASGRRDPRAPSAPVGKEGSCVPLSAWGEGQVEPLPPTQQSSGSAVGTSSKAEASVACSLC
Description: as §5
Cells were seeded at a density of 5×10^4 cells per well in Biocoat® Poly-D-lysine-coated black-wall, clear-bottom 96-well plates (Becton-Dickinson) and allowed to attach overnight in an incubator at 37° C. Cells were then washed two times with HBSS-HEPES buffer (Hanks Balanced Salt Solution without bicarbonate and phenol red, 20 mM HEPES, pH 7.4) using a Denley Cellwash plate washer (Labsystems). […]
Cells were excited with an Argon laser at 488 nm, and emission was measured through a 510–570 nm bandwidth emission filter (FLIPR™, Molecular Devices, Sunnyvale, Calif.). […] The peak increase in fluorescence intensity was recorded for each well. […] The peak fluorescence change in each drug-containing well was then expressed relative to the controls. […]

pEC50 (hIP)	Compound	Max. ΔIOP (cynomolgus monkeys)	pIC50 (HEP4)	pEC50 (hEP4/Gqs5)	Max hyperemia (Beagle dogs [1])	pIC50 (HEP3D)	Max. ΔIOP (Beagle dogs [2])
–	O=C(O)CSCCCS[C@H]1C(=O)C[C@@H](CO)[C@@H]1/C=C/C(O)Cc1ccccc1 (single isomer, unassigned) [Compound 151]	−2.9 mm Hg	7.28	7.23	1.6	< 5.00	−4.0 mm Hg
< 5.00	COC(=O)CSCCCS[C@H]1C(=O)C[C@@H](CO)[C@@H]1/C=C/C(O)CCc1ccc2ccccc2c1 (single isomer, unassigned) [drawing 39]	–	6.85	5.73	–	–	–

Source: patent US7183324B2, “2,3,4-substituted cyclopentanones as therapeutic agents” (Allergan, Inc., priority 2004, dated 2007)
